How the values were obtained:
Format in all cases: cell-based
human GLUT1 = target: T1, human GLUT1 (Homo sapiens, UniProt P11166); assay: [3H]-deoxy-D-glucose uptake assay, GLUT1; details: [3H]-deoxy-D-glucose uptake in HEK293 cells stably expressing human GLUT1
T1 construct: expressed in transfected cells
T1 sequence (P11166 1-492): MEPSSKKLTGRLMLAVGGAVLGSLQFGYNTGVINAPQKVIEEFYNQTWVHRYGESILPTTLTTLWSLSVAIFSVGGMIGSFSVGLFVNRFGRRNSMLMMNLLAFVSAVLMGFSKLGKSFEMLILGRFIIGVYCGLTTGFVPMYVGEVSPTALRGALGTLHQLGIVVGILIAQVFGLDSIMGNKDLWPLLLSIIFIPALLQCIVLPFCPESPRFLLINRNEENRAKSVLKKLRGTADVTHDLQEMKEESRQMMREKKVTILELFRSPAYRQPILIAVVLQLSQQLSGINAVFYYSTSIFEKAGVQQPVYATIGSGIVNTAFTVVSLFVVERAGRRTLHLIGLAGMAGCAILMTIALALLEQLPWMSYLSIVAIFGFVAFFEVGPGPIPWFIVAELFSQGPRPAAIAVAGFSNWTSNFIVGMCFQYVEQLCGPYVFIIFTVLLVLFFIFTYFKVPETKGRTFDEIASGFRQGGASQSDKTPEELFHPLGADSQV
Summary of the method: (§1)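 HEK293 cells stably overexpressing human GLUT1 or GLUT2, seeded at 60,000 per well, treated with compounds in glucose-free uptake buffer for 30 min at 37 °C. [3H]-deoxy-D-glucose uptake quantified by scintillation counting after ice-cold PBS washes; IC50 determined.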

human GLUT2 = target: T2, human GLUT2 (Homo sapiens, UniProt P11168); assay: [3H]-deoxy-D-glucose uptake assay, GLUT2; details: [3H]-deoxy-D-glucose uptake in HEK293 cells stably expressing human GLUT2
T2 construct: expressed in transfected cells
T2 sequence (P11168 1-524): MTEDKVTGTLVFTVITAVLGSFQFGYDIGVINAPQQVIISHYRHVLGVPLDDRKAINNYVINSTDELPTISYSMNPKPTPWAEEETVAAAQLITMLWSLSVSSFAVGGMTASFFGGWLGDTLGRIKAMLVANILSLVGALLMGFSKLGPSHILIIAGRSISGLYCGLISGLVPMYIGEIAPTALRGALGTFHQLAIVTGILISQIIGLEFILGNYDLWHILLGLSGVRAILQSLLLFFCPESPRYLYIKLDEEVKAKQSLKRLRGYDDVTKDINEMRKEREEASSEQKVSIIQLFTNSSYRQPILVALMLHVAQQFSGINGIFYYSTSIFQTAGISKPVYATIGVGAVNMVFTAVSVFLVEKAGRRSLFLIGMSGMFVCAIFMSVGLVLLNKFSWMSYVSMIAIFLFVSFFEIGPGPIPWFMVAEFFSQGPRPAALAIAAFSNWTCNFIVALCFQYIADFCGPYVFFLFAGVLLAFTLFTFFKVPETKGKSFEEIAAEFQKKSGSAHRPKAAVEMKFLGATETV
Summary of the method: as §1

human GLUT3 = target: T3, human GLUT3 (Homo sapiens, UniProt P11169); assay: [3H]-deoxy-D-glucose uptake assay, GLUT3; details: [3H]-deoxy-D-glucose uptake in HEK293 cells stably expressing human GLUT3
T3 construct: expressed in transfected cells
T3 sequence (P11169 1-496): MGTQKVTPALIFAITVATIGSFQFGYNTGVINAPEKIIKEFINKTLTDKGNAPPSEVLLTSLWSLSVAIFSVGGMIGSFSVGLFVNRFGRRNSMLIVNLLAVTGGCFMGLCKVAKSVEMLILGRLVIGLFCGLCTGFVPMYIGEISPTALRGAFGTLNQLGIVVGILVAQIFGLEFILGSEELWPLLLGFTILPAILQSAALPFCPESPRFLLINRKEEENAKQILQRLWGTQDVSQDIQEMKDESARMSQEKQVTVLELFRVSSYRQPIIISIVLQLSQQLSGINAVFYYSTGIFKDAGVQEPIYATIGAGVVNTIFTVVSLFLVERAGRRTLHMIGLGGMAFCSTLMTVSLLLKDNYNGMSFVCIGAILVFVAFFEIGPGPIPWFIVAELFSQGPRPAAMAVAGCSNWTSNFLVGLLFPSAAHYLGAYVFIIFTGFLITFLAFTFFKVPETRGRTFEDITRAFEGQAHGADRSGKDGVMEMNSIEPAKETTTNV
Method: (§2) HEK293 cells were engineered to stably express either human GLUT1, GLUT2, GLUt3 or GLUT4 by transfection with the pReceiver-Lv105 plasmid, containing either hGLUT1, hGLUT2, hGLUT3, or hGLUT4 gene constructs with lipofectamine 2000, hGLUT1- hGLUT2- hGLUT3- or hGLUT4-overexpressing polyclonal populations were isolated under purinomycin selective pressure (1 μg/ml) and maintained in Dulbecco's modified Eagle's medium supplemented with 1 μg/ml purinomycin+10% foetal bovine serum (FBS).
(§3) 60,000 cells per well were seeded overnight into poly-D-lysine coasted 96-well plates. Following media removal, cells were washed twice in warm glucose-free uptake buffer (25 mM HEPES/KOH pH 7.4, 125 mM NaCl, 4.8 mM KCl, 1.2 mM MgSO4, 1.2 mM CaCl2, 1.2 mM KH2PO4). 90 μl of test compounds were added in glucose-free uptake buffer and cells were incubated at 37° C. for 30 min. 10 μl of [3H]-deoxy-D-glucose (0.25 μCi, 125 μM final assay concentration) was then added per well in glucose-free uptake buffer and uptake was allowed to proceed at 37° C. for 30 min.
(§4) Cells were then washed twice with ice-cold PBS and 100 μl of Microscint-20 was added per well. Glucose uptake was quantified with a scintillation counter. The half maximal inhibitory concentration (IC50) (a measure of the effectiveness of the test compound in inhibiting glucose uptake) was determined.

human GLUT4 = target: T4, human GLUT4 (Homo sapiens, UniProt P14672); assay: [3H]-deoxy-D-glucose uptake assay, GLUT4; details: [3H]-deoxy-D-glucose uptake in HEK293 cells stably expressing human GLUT4
T4 construct: expressed in transfected cells
T4 sequence (P14672 1-509): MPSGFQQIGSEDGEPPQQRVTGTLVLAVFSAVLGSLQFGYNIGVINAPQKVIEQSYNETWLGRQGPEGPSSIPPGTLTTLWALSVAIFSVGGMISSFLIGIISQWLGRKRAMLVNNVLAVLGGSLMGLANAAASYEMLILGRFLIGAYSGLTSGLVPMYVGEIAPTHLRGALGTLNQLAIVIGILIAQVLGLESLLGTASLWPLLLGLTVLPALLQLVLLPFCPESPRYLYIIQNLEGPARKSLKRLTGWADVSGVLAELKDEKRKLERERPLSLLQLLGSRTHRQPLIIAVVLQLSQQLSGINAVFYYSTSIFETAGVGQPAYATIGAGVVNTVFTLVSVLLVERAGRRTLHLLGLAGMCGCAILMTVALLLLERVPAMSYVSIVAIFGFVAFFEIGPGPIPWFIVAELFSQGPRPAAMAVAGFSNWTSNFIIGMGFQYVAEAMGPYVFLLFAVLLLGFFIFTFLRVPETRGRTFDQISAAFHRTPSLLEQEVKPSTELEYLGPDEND
Method: as §2, §3, §4

Compound	GLUT1 pIC50 (human GLUT1)	GLUT2 pIC50 (human GLUT2)	GLUT3 pIC50 (human GLUT3)	GLUT4 pIC50 (human GLUT4)
O=C(c1ccnnc1)N1CCN(Cc2c(-c3ccc(Cl)cc3Cl)nc3cnc(C4CC4)cn23)CC1 [Compound 296]	+++ (pIC50 ≧ 6.00)	+++ (pIC50 ≧ 6.00)	+++ (pIC50 ≧ 6.00)	+++ (pIC50 ≧ 6.00)
O=C(C1CCOCC1)N1CCN(Cc2c(-c3ccc(Cl)cc3Cl)nc3cnc(C4CC4)cn23)CC1 [Compound 297]	+++ (pIC50 ≧ 6.00)	+++ (pIC50 ≧ 6.00)	+++ (pIC50 ≧ 6.00)	+++ (pIC50 ≧ 6.00)
O=C(c1cscn1)N1CCN(Cc2c(-c3ccc(Cl)cc3Cl)nc3cnc(C4CC4)cn23)CC1 [Compound 306]	+++ (pIC50 ≧ 6.00)	+++ (pIC50 ≧ 6.00)	+++ (pIC50 ≧ 6.00)	+++ (pIC50 ≧ 6.00)
CN(c1ccc2nc(-c3ccc(Cl)cc3)c(CN3CCN(C(=O)C4COC4)CC3)n2c1)S(C)(=O)=O [Compound 309]	+++ (pIC50 ≧ 6.00)	++ (pIC50 5.00-5.99)	+++ (pIC50 ≧ 6.00)	+++ (pIC50 ≧ 6.00)
CN(c1ccc2nc(-c3ccc(Cl)cc3)c(CN3CCN(C(=O)c4ccnnc4)CC3)n2c1)S(C)(=O)=O [Compound 310]	+++ (pIC50 ≧ 6.00)	++ (pIC50 5.00-5.99)	+++ (pIC50 ≧ 6.00)	+++ (pIC50 ≧ 6.00)
COCC(=O)N1CCN(Cc2c(-c3ccc(Cl)cc3Cl)nc3cnc(C4CC4)cn23)CC1 [Compound 311]	+++ (pIC50 ≧ 6.00)	+++ (pIC50 ≧ 6.00)	+++ (pIC50 ≧ 6.00)	+++ (pIC50 ≧ 6.00)
CCS(=O)(=O)Nc1ccc2nc(-c3ccc(Cl)cc3)c(CN3CCN(C(C)=O)CC3)n2c1 [Compound 314]	+++ (pIC50 ≧ 6.00)	++ (pIC50 5.00-5.99)	+++ (pIC50 ≧ 6.00)	+++ (pIC50 ≧ 6.00)
O=C(CO)N1CCN(Cc2c(-c3ccc(Cl)cc3Cl)nc3cnc(C4CC4)cn23)CC1 [Compound 321]	+++ (pIC50 ≧ 6.00)	+++ (pIC50 ≧ 6.00)	+++ (pIC50 ≧ 6.00)	+++ (pIC50 ≧ 6.00)
CC(C)(O)C(=O)N1CCN(Cc2c(-c3ccc(Cl)cc3Cl)nc3cnc(C4CC4)cn23)CC1 [Compound 322]	+++ (pIC50 ≧ 6.00)	+++ (pIC50 ≧ 6.00)	+++ (pIC50 ≧ 6.00)	+++ (pIC50 ≧ 6.00)
CC(=O)N1CCN(Cc2c(-c3ccc(Cl)cc3)nc3ccc(N4CCCCS4(=O)=O)cn23)CC1 [Compound 326]	+++ (pIC50 ≧ 6.00)	+++ (pIC50 ≧ 6.00)	+++ (pIC50 ≧ 6.00)	+++ (pIC50 ≧ 6.00)
CS(=O)(=O)Nc1ccc2nc(-c3ccc(Cl)cc3Cl)c(CN3CCN(C(=O)C4COC4)CC3)n2c1 [Compound 334]	+++ (pIC50 ≧ 6.00)	++ (pIC50 5.00-5.99)	+++ (pIC50 ≧ 6.00)	+++ (pIC50 ≧ 6.00)
CC(=O)N1CCN(Cc2c(-c3ccc(Cl)cc3Cl)nc3ccc(N4CCCS4(=O)=O)cn23)CC1 [Compound 339]	+++ (pIC50 ≧ 6.00)	+++ (pIC50 ≧ 6.00)	+++ (pIC50 ≧ 6.00)	+++ (pIC50 ≧ 6.00)

The next lines start with the values.

GLUT1 pIC50 (human GLUT1)	GLUT2 pIC50 (human GLUT2)	GLUT3 pIC50 (human GLUT3)	GLUT4 pIC50 (human GLUT4)	Compound
+++ (pIC50 ≧ 6.00)	++ (pIC50 5.00-5.99)	+++ (pIC50 ≧ 6.00)	+++ (pIC50 ≧ 6.00)	COCC(=O)N1CCN(Cc2c(-c3ccc(Cl)cc3)nc3ccc(N(C)S(C)(=O)=O)cn23)CC1 [Compound 303]
+++ (pIC50 ≧ 6.00)	++ (pIC50 5.00-5.99)	+++ (pIC50 ≧ 6.00)	+++ (pIC50 ≧ 6.00)	CC(=O)N1CCN(Cc2c(-c3ccc(Cl)cc3Cl)nc3ccc(NS(C)(=O)=O)cn23)CC1 [Compound 313]
+++ (pIC50 ≧ 6.00)	++ (pIC50 5.00-5.99)	+++ (pIC50 ≧ 6.00)	+++ (pIC50 ≧ 6.00)	CCS(=O)(=O)N(C)c1ccc2nc(-c3ccc(Cl)cc3)c(CN3CCN(C(C)=O)CC3)n2c1 [Compound 316]
+++ (pIC50 ≧ 6.00)	+++ (pIC50 ≧ 6.00)	+++ (pIC50 ≧ 6.00)	+++ (pIC50 ≧ 6.00)	CC(=O)N1CCN(Cc2c(-c3ccc(Cl)cc3Cl)nc3ccc(N(C)S(C)(=O)=O)cn23)CC1 [Compound 333]
+++ (pIC50 ≧ 6.00)	+++ (pIC50 ≧ 6.00)	+++ (pIC50 ≧ 6.00)	+++ (pIC50 ≧ 6.00)	CN(c1ccc2nc(-c3ccc(Cl)cc3Cl)c(CN3CCN(C(=O)C4COC4)CC3)n2c1)S(C)(=O)=O [Compound 335]
+++ (pIC50 ≧ 6.00)	++ (pIC50 5.00-5.99)	+++ (pIC50 ≧ 6.00)	+++ (pIC50 ≧ 6.00)	COCC(=O)N1CCN(Cc2c(-c3ccc(Cl)cc3Cl)nc3ccc(NS(C)(=O)=O)cn23)CC1 [Compound 336]
+++ (pIC50 ≧ 6.00)	++ (pIC50 5.00-5.99)	+++ (pIC50 ≧ 6.00)	+++ (pIC50 ≧ 6.00)	CC(=O)N1CCN(Cc2c(-c3ccc(Cl)cc3)nc3ccc(N(C)S(=O)(=O)C(C)C)cn23)CC1 [Compound 340]
